The record followed here is patent US11051515B2, “3-acyl-benzamides and their use as herbicides” (Bayer Aktiengesellschaft, priority 2017, dated 2021).

In test [1] the test system is LOLMU. The experiment in a line: Pre-emergence action against LOLMU. The format is in vivo, Lolium multiflorum. The note with it: dosage 320 g/ha, scored visually after 3 weeks vs untreated controls; for pest or weed control at 320 g/ha: Lolium multiflorum, 504 h, read-out: Pre-emergence action against LOLMU (herbicidal activity). The text has this:
Seeds of monocotyledonous and dicotyledonous weed plants and crop plants are laid out in sandy loam soil in wood-fiber pots and covered with soil. The compounds of the invention, formulated in the form of wettable powders (WP) or as emulsion concentrates (EC), are then applied to the surface of the covering soil in the form of an aqueous suspension or emulsion at a water application rate equating to […], with addition of 0.2% wetting agent. After the treatment, the pots are placed in a greenhouse and kept under good growth conditions for the trial plants. The damage to the test plants is scored visually after a test period of 3 weeks by comparison with untreated controls (herbicidal activity in percent (%): 100% activity=the plants have died, 0% activity=like control plants).

Test [2] relates to ABUTH. The experiment in a line: Post-emergence action against ABUTH. Type of test: in vivo, Abutilon theophrasti. Particulars: post-emergence, dosage 80 g/ha, visual assessment about 3 weeks after treatment vs untreated controls; for pest or weed control at 80 g/ha: Abutilon theophrasti, 504 h, read-out: Post-emergence action against ABUTH (herbicidal action in percent). In short, it runs like this:
(§1)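 Weeds grown in sandy loam in greenhouse, treated at one-leaf stage (2–3 weeks after sowing) with WP or EC formulations sprayed as aqueous suspension/emulsion at 600 to […] water with 0.2% wetting agent. Visual rating after about 3 weeks versus untreated controls, as % herbicidal action (100% = plants dead, 0% = like control).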

The test system of test [3] is VERPE. Briefly: Post-emergence action against VERPE. Type of test: in vivo, Veronica persica. Particulars: Veronica persica, 504 h, dosage 80 g/ha. In short, it runs like this:
as §1

Test [4] relates to SETVI. The experiment in a line: Post-emergence action against SETVI. Type of test: in vivo, Setaria viridis. The note with it: post-emergence, dosage 80 g/ha, visual assessment about 3 weeks after treatment vs untreated controls; for pest or weed control at 80 g/ha: Setaria viridis, 504 h, read-out: Post-emergence action against SETVI (herbicidal action in percent). In short, it runs like this: as §1

Test [5] concerns AMARE. Briefly: Post-emergence action against AMARE. Type of test: in vivo, Amaranthus retroflexus. The note with it: Amaranthus retroflexus, 504 h; post-emergence, dosage 80 g/ha, visual assessment about 3 weeks after treatment vs untreated controls; read-out: Post-emergence action against AMARE (herbicidal action in percent). In short, it runs like this:
as §1

In test [6] the test system is ABUTH. Briefly: Pre-emergence action against ABUTH. The note with it: pre-emergence, dosage 320 g/ha, scored visually after 3 weeks vs untreated controls; for pest or weed control at 320 g/ha: Abutilon theophrasti, 504 h, read-out: Pre-emergence action against ABUTH (herbicidal activity). Type of test: in vivo, Abutilon theophrasti. The method, boiled down:
(§2)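 Seeds sown in sandy loam in wood-fiber pots and covered with soil. Greenhouse growth; visual damage scored after 3 weeks versus untreated controls (100% = dead, 0% = like control).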

Test [7] concerns CYPES. The experiment in a line: Post-emergence action against CYPES. Type of test: in vivo, Cyperus esculentus. Particulars: post-emergence, dosage 80 g/ha, visual assessment about 3 weeks after treatment vs untreated controls; for pest or weed control at 80 g/ha: Cyperus esculentus, 504 h, read-out: Post-emergence action against CYPES (herbicidal action in percent). In short, it runs like this:
as §1

Test [8] relates to VIOTR. The experiment in a line: Pre-emergence action against VIOTR. Type of test: in vivo, Viola tricolor. The note with it: Dosage 320 g/ha, pre-emergence; for pest or weed control at 320 g/ha: Viola tricolor, 504 h. The method, boiled down: as §2
In test [9] the test system is ALOMY. The experiment in a line: Pre-emergence action against ALOMY. The format is in vivo, Alopecurus myosuroides. The note with it: dosage 320 g/ha, pre-emergence, scored visually after 3 weeks vs untreated controls, 100% = plants have died, 0% = like control plants; for pest or weed control at 320 g/ha: Alopecurus myosuroides, 504 h, read-out: Pre-emergence action against ALOMY (herbicidal activity in percent). The method, boiled down: as §2

Test [10] has as its system STEME. Briefly: Pre-emergence action against STEME. The format is in vivo, Stellaria media. The note with it: Dosage 320 g/ha, pre-emergence; for pest or weed control at 320 g/ha: Stellaria media, 504 h. The method, boiled down:
as §2

Test [11] concerns VIOTR. Briefly: Post-emergence action against VIOTR. Type of test: in vivo, Viola tricolor. Particulars: post-emergence, dosage 80 g/ha; for pest or weed control at 80 g/ha: Viola tricolor, 504 h. In short, it runs like this:
as §1

The test system of test [12] is SETVI. The experiment in a line: Pre-emergence action against SETVI. The note with it: pre-emergence, dosage 320 g/ha, scored visually after 3 weeks vs untreated controls; for pest or weed control at 320 g/ha: Setaria viridis, 504 h, read-out: SETVI (Table B8, pre-emergence herbicidal activity). The format is in vivo, Setaria viridis. In short, it runs like this: as §2

The test system of test [13] is PHBPU. Briefly: Post-emergence action against PHBPU. The note with it: post-emergence, dosage 80 g/ha; for pest or weed control at 80 g/ha: Ipomoea purpurea, 504 h. The format is in vivo, Pharbitis purpurea. The method, boiled down: as §1
The test system of test [14] is POLCO. The experiment in a line: Pre-emergence action against POLCO. Type of test: in vivo, Polygonum convolvulus. The note with it: Dosage 320 g/ha, pre-emergence; for pest or weed control at 320 g/ha: Fallopia convolvulus, 504 h. The method, boiled down: as §2
Test [15] concerns MATIN. Briefly: Post-emergence action against MATIN. The format is in vivo, Matricaria inodora. Particulars: post-emergence, dosage 80 g/ha, visual assessment about 3 weeks after treatment vs untreated controls; for pest or weed control at 80 g/ha: Tripleurospermum inodorum, 504 h, read-out: Post-emergence action against MATIN (herbicidal action in percent). In short, it runs like this: as §1

Test [16] has as its system AVEFA. The experiment in a line: Pre-emergence action against AVEFA. The format is in vivo, Avena fatua. Particulars: dosage 320 g/ha, scored visually after 3 weeks vs untreated controls; for pest or weed control at 320 g/ha: Avena fatua, 504 h, read-out: Pre-emergence action against AVEFA (herbicidal activity). The method, boiled down: as §2
Test [17] deals with ECHCG. Briefly: Post-emergence action against ECHCG. Type of test: in vivo, Echinochloa crus-galli. Particulars: post-emergence, dosage 80 g/ha, visual assessment about 3 weeks after treatment vs untreated controls; for pest or weed control at 80 g/ha: Echinochloa crus-galli, 504 h, read-out: Post-emergence action against ECHCG (herbicidal action in percent). In short, it runs like this: as §1

Test [18] concerns ECHCG. The experiment in a line: Pre-emergence action against ECHCG. The format is in vivo, Echinochloa crus-galli. Particulars: pre-emergence, dosage 320 g/ha, scored visually after 3 weeks vs untreated controls; for pest or weed control at 320 g/ha: Echinochloa crus-galli, 504 h, read-out: Pre-emergence action against ECHCG (herbicidal activity). In short, it runs like this: as §2

In test [19] the test system is MATIN. The experiment in a line: Pre-emergence action against MATIN. The format is in vivo, Matricaria inodora. The note with it: Dosage 320 g/ha, pre-emergence; for pest or weed control at 320 g/ha: Tripleurospermum inodorum, 504 h. The method, boiled down:
as §2

Test [20] concerns VERPE. Briefly: Pre-emergence action against VERPE. Particulars: Dosage 320 g/ha, pre-emergence; for pest or weed control at 320 g/ha: Veronica persica, 504 h. Type of test: in vivo, Veronica persica. In short, it runs like this: as §2
Test [21] concerns POLCO. Briefly: Post-emergence action against POLCO. Type of test: in vivo, Polygonum convolvulus. Particulars: post-emergence, dosage 80 g/ha; for pest or weed control at 80 g/ha: Fallopia convolvulus, 504 h. In short, it runs like this: as §1
In test [22] the test system is AMARE. The experiment in a line: Pre-emergence action against AMARE. Particulars: pre-emergence, dosage 320 g/ha, scored visually after 3 weeks vs untreated controls; for pest or weed control at 320 g/ha: Amaranthus retroflexus, 504 h, read-out: Pre-emergence action against AMARE (herbicidal activity). The format is in vivo, Amaranthus retroflexus. In short, it runs like this:
as §2

The subject of test [23] is STEME. Briefly: Post-emergence action against STEME. The format is in vivo, Stellaria media. Particulars: post-emergence, dosage 80 g/ha; for pest or weed control at 80 g/ha: Stellaria media, 504 h. In short, it runs like this: as §1
The test system of test [24] is CYPES. Briefly: Pre-emergence action against CYPES. Type of test: in vivo, Cyperus esculentus. Particulars: pre-emergence, dosage 320 g/ha, scored visually after 3 weeks vs untreated controls; for pest or weed control at 320 g/ha: Cyperus esculentus, 504 h, read-out: Pre-emergence action against CYPES (herbicidal activity). In short, it runs like this:
as §2

Test [25] has as its system PHBPU. Briefly: Pre-emergence action against PHBPU. Particulars: Dosage 320 g/ha, pre-emergence. The format is in vivo, Pharbitis purpurea. In short, it runs like this:
as §2

As for `COc1c(C(=O)Nc2nnnn2C)ccc(C(F)(F)F)c1C(C)=O` [1-48], the pest or weed control at 320 g/ha in [1] is 80%; in test [6], 100%; in [8], 100%; in test [9], 90%; in [10], 90%; in [12], 100%. The pest or weed control at 320 g/ha in test [14] was 90%; in test [16], 90%; in test [18], 100%; in test [19], 100%; in test [20] it was 100%; in [22] it was 100%. In addition, the pest or weed control at 320 g/ha in test [24] was 90%. The pest or weed control at 80 g/ha stood at 100% in [2]; 80% in test [3]; 80% in [4]; 100% in test [5]; 100% in test [7]; 100% in test [11]. In addition, the pest or weed control at 80 g/ha in test [13] was 90%; in [15] it was 100%; in [17], 90%; in test [21], 90%; in test [23] it was 100%.
As to `CCn1nnnc1NC(=O)c1ccc(C(F)(F)F)c(C(C)=O)c1Cl` [2-137, 3-acetyl-2-chloro-N-(1-ethyl-1H-tetrazol-5-yl)-4-(trifluoromethyl)benzamide], the pest or weed control at 320 g/ha in test [1] stood at 80%; in test [6], 100%; in test [8], 100%; in test [9], 90%; in test [10], 90%; in test [12], 100%. The pest or weed control at 320 g/ha was 90% in test [14]; 90% in test [16]; 100% in test [18]; 100% in test [19]; 90% in [20]; 100% in test [22]. Also, in test [24], the pest or weed control at 320 g/ha was 100%. Moreover, the pest or weed control at 80 g/ha in test [2] amounted to 90%; in test [3], 90%; in test [4], 100%; in test [5], 100%; in [7] it was 90%; in test [11], 100%. The pest or weed control at 80 g/ha in [13] was 90%; in test [15], 100%; in test [17] it was 90%; in test [21], 90%; in test [23], 100%.
As to `CCn1nnnc1NC(=O)c1ccc(C(F)(F)F)c(C(C)=O)c1Br` [2-195], in test [1], the “Pre-emergence action against LOLMU (herbicidal activity)” value came to 80%. For the same molecule, in [2], the “Post-emergence action against ABUTH (herbicidal action in percent)” value is listed as 80%. For the same molecule, the “Post-emergence action against SETVI (herbicidal action in percent)” value in test [4] is on record as 90%. Further, the “Pre-emergence action against ABUTH (herbicidal activity)” value in [6] was 100%. The “Post-emergence action against CYPES (herbicidal action in percent)” value in [7] was found to be 90%. Also, the “Pre-emergence action against VIOTR” value in test [8] is 100%. For the same molecule, the “Pre-emergence action against ALOMY (herbicidal activity in percent)” value in test [9] was found to be 90%. Also, in test [10], the “Pre-emergence action against STEME” value came out at 100%. Moreover, in test [11], the “Post-emergence action against VIOTR” value stood at 100. Besides, the “SETVI (Table B8, pre-emergence herbicidal activity)” value in test [12] is given as 100%. In test [13], the “Post-emergence action against PHBPU” value was determined as 90. For the same molecule, the “Pre-emergence action against POLCO” value in [14] is 90%. Besides, the “Post-emergence action against MATIN (herbicidal action in percent)” value in [15] worked out at 90%. The “Pre-emergence action against AVEFA (herbicidal activity)” value in test [16] is on record as 90%. Also, the “Post-emergence action against ECHCG (herbicidal action in percent)” value in [17] is on record as 90%. For the same molecule, in test [18], the “Pre-emergence action against ECHCG (herbicidal activity)” value was found to be 100%. In [19], the “Pre-emergence action against MATIN” value is recorded as 100%. Also, in [25], the “Pre-emergence action against PHBPU” value was 80%. The “Pre-emergence action against VERPE” value in test [20] is 100%. Moreover, in [21], the “Post-emergence action against POLCO” value is reported as 90. Also, the “Pre-emergence action against AMARE (herbicidal activity)” value in test [22] is on record as 100%. Moreover, the “Post-emergence action against STEME” value in test [23] amounted to 90. Also, in [24], the “Pre-emergence action against CYPES (herbicidal activity)” value is given as 100%.
